For test [1], the system named is human colon cancer cell strain HCT-116. The test is described as follows: MTT assay, inhibition of tumor cell growth in vitro, 72 h. The following applies: Homo sapiens, HCT-116, MTT, read-out: Antitumor proliferative activities of tumor cell (IC50, μM) HCT-116 (converted). The test is classed as cell-based. Put shortly:
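Cells in RPMI 1640 with FBS, 4000 cells/well, exposed 72 h at 37 °C, 5% CO2 to final 50, 10, 2, 0.4 and 0.08 μM; 1% DMSO blank. MTT OD gives % inhibition versus control; IC50 derived by Bliss method.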
Background: Tetrazolium dyes change colour on reduction, which living cells bring about.

For test [2], the system named is Human ovarian cancer cell strain OVCAR-8. Described as above. Type of test: cell-based. Conditions: Homo sapiens, OVCAR-8, MTT, read-out: Antitumor proliferative activities of tumor cell (IC50, μM) OVCAR-8. Summed up:
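OVCAR8 cells in RPMI 1640 plus FBS were seeded at 4000 cells/well and exposed for 72 h at 37 °C to compound at 50, 10, 2, 0.4 and 0.08 μM final, with 1% DMSO as blank. Inhibition was calculated from OD relative to control, and IC50 was derived by the Bliss method.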

Test [3] addresses T1, Akt1 (Homo sapiens, UniProt P31749).
T1 construct: purchased 32-021
Kind of test: AKT1/PKBα KinEASE FP Fluorescein Green Assay (fluorescence polarization kinase kit). Type of test: biochemical. The following applies: 1 h reaction, read-out: Inhibitory activities against Akt1 (IC50). Put shortly:
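FP competition kinase assay: compounds (50 μM stock) with STK Substrate 3 and ATP, 1 h reaction at room temperature; stopped with stop/antibody mix, 4 h at room temperature, then polarization read. Inhibition derived from polarization values; IC50 calculated; triplicate wells.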
Background: Polarisation of emitted light reports the rotation of a fluorescent probe.

The term IC50 denotes the concentration needed to halve the response being measured.

T1 sequence (P31749 whole entry): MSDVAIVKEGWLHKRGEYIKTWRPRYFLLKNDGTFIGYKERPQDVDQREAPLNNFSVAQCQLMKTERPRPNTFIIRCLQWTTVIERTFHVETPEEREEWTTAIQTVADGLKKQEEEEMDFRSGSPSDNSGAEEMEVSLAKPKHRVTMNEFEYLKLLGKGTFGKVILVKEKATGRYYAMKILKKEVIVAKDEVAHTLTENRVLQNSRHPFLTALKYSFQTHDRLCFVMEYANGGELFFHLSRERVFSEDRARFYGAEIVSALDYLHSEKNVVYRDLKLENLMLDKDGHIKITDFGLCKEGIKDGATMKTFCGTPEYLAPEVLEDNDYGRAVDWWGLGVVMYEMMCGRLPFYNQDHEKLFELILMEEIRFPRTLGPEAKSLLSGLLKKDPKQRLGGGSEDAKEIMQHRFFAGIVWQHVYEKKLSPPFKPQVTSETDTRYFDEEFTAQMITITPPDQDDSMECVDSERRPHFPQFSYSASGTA

Regarding `Cn1ncc(Cl)c1-c1ccc(C(=O)N[C@@H]2CNCC[C@H]2c2ccc(Cl)cc2)cc1C#N` [Compound 76, 4-(4-chloro-1-methyl-1H-pyrazol-5-yl)-N-((3S,4S)-4-(4-chlorophenyl)piperidin-3-yl)-3-cyanobenzamide], the half-inhibitory concentration (IC50) is 1.56 µM in test [1], 2.54 µM in test [2] and 21 nM in test [3].
In the case of `Cn1ncc(-c2ccncc2)c1-c1ccc(C(=O)N[C@@H]2CNCC[C@H]2c2cccc(F)c2)s1` [Compound 140, N-((3S, 4S)-4-(3-fluorophenyl)piperidin-3-yl)-5-(1-methyl-4-(pyridinyl-4-yl)-1H-pyrazol-5-yl)thiophene-2-formamide], the IC50 was 1.1 µM in test [1], 6.67 µM in test [2] and 1 nM in test [3].
On to `CCc1cc(C(=O)N[C@@H]2CNCC[C@H]2c2ccc(C(F)(F)F)cc2)cnc1-c1c(Br)cnn1C` [Compound 64, 5-ethyl-6-(4-bromo-1-methyl-1H-pyrazol-5-yl)-N-((3S,4S)-4-(4-trifluoromethylphenyl)piperidin-3-yl)pyridinyl-3-formamide], for which the values for the 50% inhibitory concentration (IC50) in test [1], in test [2] and in test [3] were 22.6 µM, 1.62 µM and 256 nM, respectively.
`Cn1ncc(Cl)c1-c1cc(C(=O)N[C@@H]2CNC(CCCO)C[C@H]2c2ccc(Cl)c(Cl)c2)oc1Cl` (stereo partly drawn) [Compound 111, 5-chloro-4-(4-chloro-1-methyl-1H-pyrazol-5-yl)-N-((3S,4S)-4-(3,4-dichlorophenyl)-6-(3-hydroxypropyl)piperidin-3-yl)furan-2-formamide]: the IC50 in test [1] was 0.49 µM; in test [2] it was 0.07 µM; in test [3] it was 4 nM.
For `CCc1c(-c2c(Cl)cnn2C)cc(C(=O)N[C@H]2CNCC[C@@H]2C2CCC(F)C2)n1C` (stereo partly drawn) [Compound 15, 5-ethyl-1-methyl-4-(4-chloro-1-methyl-1H-pyrazol-5-yl)-N-(3,4-trans-4-(3-fluorocyclopentanyl)piperidin-3-yl)-1H-pyrrole-2-formamide], in that order: 2.04 µM, 1.26 µM and 52 nM.
On to `Cn1ncc(Cl)c1-c1cc(C(=O)N[C@@H]2CNC(CC(=O)NC3CCC3)C[C@H]2c2ccc(Cl)c(Cl)c2)oc1Cl` (stereo partly drawn) [Compound 120, 5-chloro-4-(4-chloro-1-methyl-1H-pyrazol-5-yl)-N-((3S,4S)-6-(2-(cyclobutylamido)-2-oxoethyl)-4-(3,4-dichlorophenyl)piperidin-3-yl)furan-2-formamide], for which the values for the IC50 in test [1], in test [2] and in test [3] were 0.44 µM, 0.45 µM and 3 nM, respectively.
For `Cc1nc(C(=O)N[C@H]2CNCC[C@@H]2c2ccc(F)c(F)c2)ncc1-c1c(Cl)cnn1C` (racemic) [Compound 52, 4-methyl-5-(4-chloro-1-methyl-1H-pyrazol-5-yl)-N-(3,4-trans-4-(3,4-difluorophenyl)piperidin-3-yl)pyrimidine-2-formamide], in that order: 2.05 µM, 1.06 µM and 72 nM.
For the compound `CNC(=O)CC1C[C@@H](c2ccc(F)c(F)c2)[C@H](NC(=O)c2ccc(-c3c(Cl)cnn3C)c(Cl)c2)CN1` (stereo partly drawn) [Compound 99, 3-chloro-4-(4-chloro-1-methyl-1H-pyrazol-5-yl)-N-((3S,4S)-4-(3,4-difluorophenyl)-6-(2-(methylamido)-2-oxoethyl)piperidin-3-yl)benzamide], the IC50 in test [1] is 1.21 µM; in test [2], 3.38 µM; in test [3], 7 nM.
On to `Cn1nccc1-c1coc(C(=O)N[C@H]2CNCC[C@@H]2c2ccccc2)c1` (racemic) [Compound 1, 4-(1-methyl-1H-pyrazol-5-yl)-N-(3,4-trans-4-phenylpiperidin-3-yl)furan-2-formamide], for which the concentration for half-maximal inhibition (IC50) is 3.98 µM in test [1], 1.34 µM in test [2] and 72 nM in test [3].
